Some results are limits rather than exact numbers.

The target in experiment [1] is T1, ATPase family AAA domain-containing protein 2 (Homo sapiens, UniProt Q6PL18).
T1 sequence (Q6PL18 whole entry): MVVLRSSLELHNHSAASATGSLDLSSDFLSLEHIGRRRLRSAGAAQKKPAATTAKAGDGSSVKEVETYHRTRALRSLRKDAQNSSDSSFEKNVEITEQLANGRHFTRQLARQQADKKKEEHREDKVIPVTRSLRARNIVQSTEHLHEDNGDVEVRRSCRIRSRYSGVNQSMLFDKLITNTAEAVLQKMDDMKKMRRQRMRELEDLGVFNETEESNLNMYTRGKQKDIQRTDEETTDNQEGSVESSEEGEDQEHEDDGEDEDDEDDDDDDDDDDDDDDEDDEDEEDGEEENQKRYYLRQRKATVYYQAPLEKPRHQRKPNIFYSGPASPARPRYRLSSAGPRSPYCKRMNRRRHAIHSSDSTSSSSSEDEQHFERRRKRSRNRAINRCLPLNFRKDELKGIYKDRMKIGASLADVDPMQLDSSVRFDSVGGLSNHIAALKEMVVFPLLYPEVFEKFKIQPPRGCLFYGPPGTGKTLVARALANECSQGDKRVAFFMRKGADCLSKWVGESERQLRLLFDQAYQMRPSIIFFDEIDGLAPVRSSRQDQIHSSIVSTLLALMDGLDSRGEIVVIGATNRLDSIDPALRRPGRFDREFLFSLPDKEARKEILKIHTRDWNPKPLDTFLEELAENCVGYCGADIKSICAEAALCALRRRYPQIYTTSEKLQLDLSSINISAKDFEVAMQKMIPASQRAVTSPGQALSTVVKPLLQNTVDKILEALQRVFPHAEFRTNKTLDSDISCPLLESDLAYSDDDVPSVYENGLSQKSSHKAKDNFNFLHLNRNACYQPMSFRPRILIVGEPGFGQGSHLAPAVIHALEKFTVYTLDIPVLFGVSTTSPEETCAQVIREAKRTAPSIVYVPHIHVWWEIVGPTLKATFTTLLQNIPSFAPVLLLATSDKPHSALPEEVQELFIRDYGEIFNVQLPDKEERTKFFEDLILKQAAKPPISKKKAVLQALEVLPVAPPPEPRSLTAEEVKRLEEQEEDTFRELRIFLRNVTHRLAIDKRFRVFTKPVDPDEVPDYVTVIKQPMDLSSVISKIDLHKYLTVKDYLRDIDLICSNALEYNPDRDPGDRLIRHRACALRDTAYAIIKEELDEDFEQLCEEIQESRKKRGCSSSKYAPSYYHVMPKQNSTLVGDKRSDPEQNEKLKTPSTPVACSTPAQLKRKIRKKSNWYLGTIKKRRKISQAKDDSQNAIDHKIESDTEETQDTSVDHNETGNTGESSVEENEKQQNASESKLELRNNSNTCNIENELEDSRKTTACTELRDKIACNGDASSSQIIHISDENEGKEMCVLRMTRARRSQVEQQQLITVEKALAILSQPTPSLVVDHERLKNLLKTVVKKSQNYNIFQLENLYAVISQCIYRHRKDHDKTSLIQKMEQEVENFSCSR
Kind of experiment: Inhibition of recombinant human N-terminal GST-tagged ATAD2 bromodomain (981 to 1146 residues) expressed in Escherichia coli using biotinylated peptide SGRGK(Ac)GGKGLGKGGAKRHRKVLRDNGSGS as substrate incubated for 3 hrs by TR-FRET assay. A general note: Time-resolved FRET reads energy transfer from a long-lived donor to a nearby acceptor.

Experiment [2] concerns the target T1, ATPase family AAA domain-containing protein 2. Kind of experiment: Binding affinity to recombinant human N-terminal GST-tagged ATAD2 bromodomain (981 to 1146 residues) expressed in Escherichia coli at 10 degree C by isothermal titration calorimetry. A general note: Isothermal titration calorimetry measures the heat released or taken up as one component is titrated into another.

On to `COc1cccc(-c2sc(NC(=O)[C@@H](C)N)nc2C(C)=O)c1`, for which the IC50 in experiment [1] was over 150 µM. The same measure, in the same setting: in the case of `CC(=O)c1csc(NC(=O)[C@@H](C)NC(=N)N)n1` it was 140 µM; in that of `CC(=O)c1nc(NC(=O)[C@H]2CNCCN2)sc1-c1cncc(N)c1`, over 150 µM. Same read-out and setting: in the case of `CC(=O)c1nc(NC(=O)C2(N)CCC2)sc1-c1cncc(N)c1` it was 80 µM; in that of `CC(=O)c1nc(NC(=O)[C@H]2CNCCN2CCC2CCC(F)(F)CC2)sc1-c1cncc(N)c1`, over 150 µM; in that of `CC(=O)c1nc(NC(=O)[C@@H](C)N)sc1-c1cccc(O)c1`, over 150 µM. Still for that read-out and setting: next, `CC(=O)c1nc(NC(=O)[C@@H](C)N)sc1-c1cccc(N)c1`: over 150 µM.

Regarding `CC(=O)c1nc(NC(=O)C(C)(C)N)sc1-c1cncc(N)c1`, the IC50 in experiment [1] is over 150 µM.

As for `CC(=O)c1csc(NC(=O)[C@H]2CNCCN2CCC2CCC(F)(F)CC2)n1`, in experiment [2], the Kd amounted to 25 µM. Also, in experiment [1], the 50% inhibitory concentration (IC50) came out at 15 µM.

As for `CC(=O)c1nc(NC(=O)[C@@H](C)NC(=N)N)sc1-c1cncc(N)c1`, the half-maximal inhibitory concentration (IC50) in experiment [1] was over 150 µM. Consider `CC(=O)c1csc(NC(=O)C(C)(C)N)n1`, for which the half-maximal inhibitory concentration (IC50) in experiment [1] is over 150 µM. With `CC(=O)c1nc(NC(=O)[C@H]2CNCCN2)sc1-c1ccc(N2CCCC2=O)cc1`, the half-inhibitory concentration (IC50) in experiment [1] was over 150 µM. On the same count and under the same terms, next, `CC(=O)c1nc(NC(=O)[C@H]2CNCCN2)sc1-c1ccc(C(=O)N2CCOCC2)cc1`: over 150 µM; `CC(=O)c1csc(NC(=O)[C@H]2CNCCN2)n1`: over 150 µM. Same read-out and setting: next, `CC(=O)c1csc(NC(=O)[C@@H](C)N)n1`: 336 µM. With `C[C@@H](N)C(=O)Nc1nc2c(s1)CCCC2=O`, in experiment [1], the IC50 is over 150 µM. Same read-out and setting: in the case of `CC(=O)c1nc(NC(=O)[C@@H](C)N)sc1-c1cccnc1` it was 95 µM; in that of `CC(=O)c1nc(NC(=O)[C@@H](C)N)sc1-c1cncc(N)c1`, over 150 µM.

What is called IC50 is the midpoint of a concentration-inhibition curve. A word on the Kd: it is a measure of binding affinity in units of concentration.

Values taken from ChEMBL document CHEMBL4619815, “Hitting a Moving Target: Simulation and Crystallography Study of ATAD2 Bromodomain Blockers” (ACS Med Chem Lett, 2020).
